# Measurements from US11912790B2, “Peptide compounds and therapeutic uses of same” (Immunity Pharma Ltd., priority 2018, dated 2024).
# Entries after “also recorded” stand apart in the source; their conditions may differ. No end group written: not given here.
# What was measured:
# [1] = system: BALB/c mice; assay: Dexamethasone-induced spleen and thymus weight and cell count loss in mice, Example 1 (FIG. 1); type: in vivo, mouse; conditions: 100 μg Dexamethasone IP; for reduction of cell count loss (spleen and thymus) / reduction of the amount of dexamethasone-induced spleen and/or thymus weight loss: BALB/c mice, peptide IV 250 or 400 μg/mouse immediately and 24 h after, sacrifice at 48 h, no difference between the 2 doses
# Protocol: The peptides described herein are capable of reducing the amount of dexamethasone-induced spleen and/or thymus weight loss in a mouse—e.g. following injection (IP) with 100 μg of Dexamethasone.
# (§1) Dexamethasone is a corticosteroid medication that induces apoptosis of immune cells and lymphomyeloid tissues. BALB/c mice were used to examine the ability of candidate peptides to rescue lymphocyte cells from apoptosis. Mice were injected IP with 100 μg of Dexamethasone. Dexamethasone-treated mice received immediately following and 24-hours after dexamethasone treatment IV injection of candidate peptides (250 or 400 μg peptide/mouse). Mice were sacrificed 48 hours after the first treatment. The spleen and the thymus were weighted and full cell count of both organs was performed.
# [2] = system: BALB/c mice; assay: Dexamethasone-induced spleen and thymus weight and cell count loss in mice, Example 2 (FIG. 2); type: in vivo; conditions: 100 μg Dexamethasone IP, peptide IV 200 μg/mouse immediately and 24 h after, sacrifice at 48 h
# Protocol: as §1, with “BALB/c” for “Dexamethasone is a corticosteroid medication that induces apoptosis of immune cells and lymphomyeloid tissues. BALB/c”, “(200” for “(250 or 400”
molecule,measurement,setting,value
"C[C@@H]1C[C@H]2[C@@H]3CCC4=CC(=O)C=C[C@]4(C)[C@@]3(F)[C@@H](O)C[C@]2(C)[C@@]1(O)C(=O)CO [Dexamethasone, reference compound]",spleen and thymus weight loss and reduction in spleen cell count induced by dexamethasone,"[1]; 48 h, compared to normal mice",about 50%
same,thymus cell count reduction induced by dexamethasone,"[1]; 48 h, compared to normal mice",~80%
LPPLAYP [SEQ ID NO: 4],reduction of cell count loss (spleen and thymus),[1],significant effect
same,reduction of the amount of dexamethasone-induced spleen and/or thymus weight loss,[1],significant effect; also recorded: significantly reduced
PPLAYP [SEQ ID NO: 18],reduction of the amount of dexamethasone-induced spleen and/or thymus weight loss,[2],significant improvement
PPLPY (not fully specified (C-terminus)) [SEQ ID NO: 3],reduction of cell count loss (spleen and thymus),[1],significant effect
same,reduction of the amount of dexamethasone-induced spleen and/or thymus weight loss,[1],significant effect; also recorded: significantly reduced
